Reference: patent publication US11028079B2 (ConverGene LLC, priority 2015, dated 2021)

Target: T1, BRD4 bromodomains (Homo sapiens, UniProt O60885)
T1 construct: fused on or other part: T7 phage capsid protein (phage-display fusion; the phage DNA is read out by qPCR)
Test: BROMOscan bromodomain competition binding assay (DiscoveRx)
Details: Kd from 11 compound concentrations ranging from 0 to 10 μM, read-out: BROMOscan Relative Activity
Method in brief: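 Compounds in 0.1% DMSO/0.9% MEG competed with a solid-phase acetylated peptide for T7 phage-fused BRD4 bromodomains, with the retained bromodomain measured by qPCR.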

Compound	Kd
Cc1noc(C)c1-c1ccc2nc(-c3cnn(C4CCNCC4)c3)nc(N3CCOC[C@@H]3c3ccccc3)c2c1 [Example 319, (S)-4-(6-(3,5-dimethylisoxazol-4-yl)-2-(1-(piperidin-4-yl)-1H-pyrazol-4-yl)quinazolin-4-yl)-3-phenylmorpholine]	< 500 nM
Cc1noc(C)c1-c1ccc2nc(C(=O)NCC3CN(C)C3)nc(NCc3cccc(Cl)c3)c2c1 [Example 200, 4-((3-chlorobenzyl)amino)-6-(3,5-dimethylisoxazol-4-yl)-N-((1-methylazetidin-3-yl)methyl)quinazoline-2-carboxamide]	< 500 nM
Cc1noc(C)c1-c1ccc2nc(-c3cnn(CCN(C)C)c3)nc(NCc3cccc(Cl)c3)c2c1 [Example 60, N-(3-chlorobenzyl)-2-(1-(2-(dimethylamino)ethyl)-1H-pyrazol-4-yl)-6-(3,5-dimethylisoxazol-4-yl)quinazolin-4-amine]	< 500 nM
CN(C)CCN1CCN(c2nc(NCc3cncc(Cl)c3)c3cc(-c4ccc(=O)n(C)c4)ccc3n2)CC1 [Example 124, 5-(4-(((5-chloropyridin-3-yl)methyl)amino)-2-(4-(2-(dimethylamino)ethyl)piperazin-1-yl)quinazolin-6-yl)-1-methylpyridin-2(1H)-one]	< 500 nM
Cc1noc(C)c1-c1ccc2nc(-c3cnn(C(C)(C)CO)c3)nc(NCc3cncc(Cl)c3)c2c1 [Example 138, 2-(4-(4-(((5-chloropyridin-3-yl)methyl)amino)-6-(3,5-dimethylisoxazol-4-yl)quinazolin-2-yl)-1H-pyrazol-1-yl)-2-methylpropan-1-ol]	< 500 nM

Results, then the compound that gave them:

Kd	Compound
< 500 nM	Cc1noc(C)c1-c1ccc2nc(N3CCC4(CC3)CC(O)C4)nc(N3CCOC[C@@H]3c3ccccc3)c2c1 [Example 313, (S)-7-(6-(3,5-dimethylisoxazol-4-yl)-4-(3-phenylmorpholino)quinazolin-2-yl)-7-azaspiro 13.51 nonan-2-ol]
500 to 5000 nM	Cc1noc(C)c1-c1ccc2ncnc(Nc3ccc(Cl)cc3)c2c1 [Example 158, N-(4-chlorophenyl)-6-(3,5-dimethylisoxazol-4-yl)quinazolin-4-amine]
< 500 nM	Cn1cc(-c2ccc3nc(N4CCN(C(=O)CN)CC4)nc(NCc4cncc(Cl)c4)c3c2)ccc1=O [Example 133, 5-(2-(4-(2-aminoacetyl)piperazin-1-yl)-4-(((5-chloropyridin-3-yl)methyl)amino)quinazolin-6-yl)-1-methylpyridin-2(1H)-one]
